ChEMBL document CHEMBL1146197, “Evolution of TEM-type enzymes: biochemical and genetic characterization of two new complex mutant TEM enzymes, TEM-151 and TEM-152, from a single patient” (Antimicrob Agents Chemother, 2007)
≈ marks a conversion by molar mass, not a printed value.

Columns and labels:
[1] = tested on: Escherichia coli; assay: microbe, parasite or virus in culture; assay type: functional; conditions: DH5alpha
[2] = tested on: Escherichia coli; assay: Antimicrobial activity against Escherichia coli DH5-alpha CF1179 isolate expressing CMT and TEM1 by […]; assay type: functional; conditions: DH5alpha
[3] = tested on: Escherichia coli; assay: Antimicrobial activity against Escherichia coli DH5-alpha TC1295 isolate expressing TEM-1 by […]; assay type: functional; conditions: DH5alpha
[4] = tested on: Escherichia coli; assay: Antimicrobial activity against recombinant Escherichia coli DH5-alpha isolate expressing pBK-TEM-28 and ESBL by disk diffusion assay; assay type: functional; conditions: DH5alpha
[5] = tested on: Escherichia coli; assay: Antimicrobial activity against recombinant Escherichia coli DH5-alpha isolate expressing pBK-TEM-1 and TEM1 by disk diffusion assay; assay type: functional; conditions: DH5alpha
[6] = tested on: Escherichia coli; assay: Antimicrobial activity against Escherichia coli DH5-alpha isolate expressing pBK-CMV by […]; assay type: functional; conditions: DH5alpha
[7] = tested on: Escherichia coli; assay: Antimicrobial activity against Escherichia coli DH5-alpha CF1295 isolate expressing CMT and TEM1 by […]; assay type: functional; conditions: DH5alpha
[8] = tested on: Escherichia coli; assay: Antimicrobial activity against Escherichia coli DH5-alpha TC1179 isolate expressing TEM-1 by […]; assay type: functional; conditions: DH5alpha
[9] = tested on: Escherichia coli; assay: Antimicrobial activity against recombinant Escherichia coli DH5-alpha isolate expressing pBK-TEM-36 and IRT by disk diffusion assay; assay type: functional; conditions: DH5alpha
[10] = tested on: Escherichia coli; assay: microbe, parasite or virus in culture; assay type: functional; conditions: DH5alpha; remark: listed apart in the source
[11] = tested on: Escherichia coli; assay: Antimicrobial activity against recombinant Escherichia coli DH5-alpha isolate expressing pBK-TEM-29 and ESBL by disk diffusion assay; assay type: functional; conditions: DH5alpha
[12] = tested on: Escherichia coli; assay: Activity of Escherichia coli BL21(DE3) beta-lactamase TEM29
[13] = tested on: Escherichia coli; assay: Activity of Escherichia coli BL21(DE3) beta-lactamase TEM152
[14] = tested on: Escherichia coli; assay: Activity of Escherichia coli BL21(DE3) beta-lactamase TEM1
[15] = tested on: Escherichia coli; assay: Activity of Escherichia coli BL21(DE3) beta-lactamase TEM36
[16] = tested on: Escherichia coli; assay: Activity of Escherichia coli BL21(DE3) beta-lactamase TEM28
[17] = tested on: Escherichia coli; assay: Activity of Escherichia coli BL21(DE3) beta-lactamase TEM151

Structure (SMILES)	MIC [1] [µg/mL]	MIC [2] [µg/mL]	MIC [3] [µg/mL]	MIC [4] [µg/mL]	MIC [5] [µg/mL]	MIC [6] [µg/mL]	MIC [7] [µg/mL]	MIC [8] [µg/mL]	MIC [9] [µg/mL]	MIC [10] [µg/mL]	MIC [11] [µg/mL]	Km [12] [µM]	kcat [12] [s⁻¹]	kcat/Km [12] [µM⁻¹ s⁻¹]	Km [13] [µM]	kcat [13] [s⁻¹]	kcat/Km [13] [µM⁻¹ s⁻¹]	kcat [14] [s⁻¹]	kcat [15] [s⁻¹]	Km [16] [µM]	also measured
CO[C@@]1(NC(=O)Cc2cccs2)C(=O)N2C(C(=O)O)=C(COC(N)=O)CS[C@@H]21 [CEFOXITIN]	8 (≈ 18.7 µM)	8 (≈ 18.7 µM)	4 (≈ 9.36 µM)	8	4	4 (≈ 9.36 µM)	8 (≈ 18.7 µM)	4 (≈ 9.36 µM)	8	8 (≈ 18.7 µM)	16	–	–	–	–	–	–	–	–	–	–
CO/N=C(\C(=O)N[C@@H]1C(=O)N2C(C(=O)O)=C(COC(C)=O)CS[C@H]12)c1csc(N)n1 [CEFOTAXIME]	0.25 (≈ 0.549 µM)	0.12 (≈ 0.263 µM)	0.02 (≈ 0.0439 µM)	4	0.06	0.02 (≈ 0.0439 µM)	0.12 (≈ 0.263 µM)	0.02 (≈ 0.0439 µM)	0.06	0.06 (≈ 0.132 µM)	0.5	345	14	0.04	34	1	0.03	< 0.1	< 0.1	50	kcat [16]: 9 s⁻¹; kcat/Km [16]: 0.18 µM⁻¹ s⁻¹; Km [17]: 304 µM; kcat [17]: 5 s⁻¹; kcat/Km [17]: 0.02 µM⁻¹ s⁻¹
CC1(C)S[C@@H]2[C@H](NC(=O)[C@H](N)c3ccc(O)cc3)C(=O)N2[C@H]1C(=O)O [AMOXICILLIN]	> 2050	> 2050	> 2050	> 2050	> 2050	4 (≈ 10.9 µM)	> 2050	> 2050	> 2050	> 2050	> 2050	26	91	3.5	48	258	5.4	1120	624	12	Km [14]: 15 µM; kcat/Km [14]: 75 µM⁻¹ s⁻¹; Km [15]: 114 µM; kcat/Km [15]: 5.5 µM⁻¹ s⁻¹; kcat [16]: 88 s⁻¹; kcat/Km [16]: 7.3 µM⁻¹ s⁻¹; Km [17]: 40 µM; kcat [17]: 149 s⁻¹; kcat/Km [17]: 3.7 µM⁻¹ s⁻¹
CC(=O)OCC1=C(C(=O)O)N2C(=O)[C@@H](NC(=O)Cc3cccs3)[C@H]2SC1 [CEPHALOTHIN]	16 (≈ 40.4 µM)	32 (≈ 80.7 µM)	4 (≈ 10.1 µM)	128	4	4 (≈ 10.1 µM)	32 (≈ 80.7 µM)	4 (≈ 10.1 µM)	16	8 (≈ 20.2 µM)	64	205	126	0.61	260	4	0.02	165	18.4	288	Km [14]: 242 µM; kcat/Km [14]: 0.7 µM⁻¹ s⁻¹; Km [15]: 335 µM; kcat/Km [15]: 0.05 µM⁻¹ s⁻¹; kcat [16]: 194 s⁻¹; kcat/Km [16]: 0.67 µM⁻¹ s⁻¹; Km [17]: 330 µM; kcat [17]: 15 s⁻¹; kcat/Km [17]: 0.04 µM⁻¹ s⁻¹
CO/N=C(\C(=O)N[C@@H]1C(=O)N2C(C(=O)O)=C(COC(N)=O)CS[C@H]12)c1ccco1 [CEFUROXIME]	8 (≈ 18.9 µM)	8 (≈ 18.9 µM)	4 (≈ 9.43 µM)	16	4	4 (≈ 9.43 µM)	8 (≈ 18.9 µM)	4 (≈ 9.43 µM)	8	8 (≈ 18.9 µM)	1020	–	–	–	–	–	–	–	–	–	–
CC(C)(O/N=C(\C(=O)N[C@@H]1C(=O)N2C(C(=O)[O-])=C(C[n+]3ccccc3)CS[C@H]12)c1csc(N)n1)C(=O)O [CEFTAZIDIME]	512 (≈ 937 µM)	64 (≈ 117 µM)	0.12 (≈ 0.22 µM)	512	0.12	0.12 (≈ 0.22 µM)	4 (≈ 7.32 µM)	0.12 (≈ 0.22 µM)	0.25	8 (≈ 14.6 µM)	32	215	10	0.05	230	16	0.07	< 0.1	< 0.1	240	kcat [16]: 64 s⁻¹; kcat/Km [16]: 0.27 µM⁻¹ s⁻¹; Km [17]: 250 µM; kcat [17]: 5 s⁻¹; kcat/Km [17]: 0.02 µM⁻¹ s⁻¹
C[C@H]1[C@H](NC(=O)/C(=N\OC(C)(C)C(=O)O)c2csc(N)n2)C(=O)N1S(=O)(=O)O (stereo in doubt) [AZTREONAM]	64 (≈ 147 µM)	> 2050	–	–	–	–	8 (≈ 18.4 µM)	–	–	2 (≈ 4.59 µM)	4	34	2.1	0.06	22	3.5	0.16	< 0.1	< 0.1	75	kcat [16]: 43 s⁻¹; kcat/Km [16]: 0.57 µM⁻¹ s⁻¹; Km [17]: 83 µM; kcat [17]: 8.3 s⁻¹; kcat/Km [17]: 0.1 µM⁻¹ s⁻¹
CO/N=C(\C(=O)N[C@@H]1C(=O)N2C(C(=O)[O-])=C(C[N+]3(C)CCCC3)CS[C@H]12)c1csc(N)n1	16 (≈ 33.3 µM)	2 (≈ 4.16 µM)	< 0.06	16	< 0.06	< 0.06	–	< 0.06	0.12	–	4	145	17	0.11	45	2.8	0.06	< 0.1	< 0.1	72	kcat [16]: 8 s⁻¹; kcat/Km [16]: 0.11 µM⁻¹ s⁻¹; Km [17]: 126 µM; kcat [17]: 2.5 s⁻¹; kcat/Km [17]: 0.02 µM⁻¹ s⁻¹
CC1(C)S[C@@H]2[C@H](NC(=O)[C@H](C(=O)O)c3ccsc3)C(=O)N2[C@H]1C(=O)O [TICARCILLIN]	> 2050	> 2050	> 2050	> 2050	> 2050	2 (≈ 5.2 µM)	> 2050	> 2050	> 2050	> 2050	> 2050	14	42	3	36	51	1.4	135	176	9	Km [14]: 36 µM; kcat/Km [14]: 3.8 µM⁻¹ s⁻¹; Km [15]: 130 µM; kcat/Km [15]: 1.3 µM⁻¹ s⁻¹; kcat [16]: 38 s⁻¹; kcat/Km [16]: 4.2 µM⁻¹ s⁻¹; Km [17]: 21 µM; kcat [17]: 60 s⁻¹; kcat/Km [17]: 2.9 µM⁻¹ s⁻¹
